The results in this text go back to patent publication US7071180B2, “Certain arylaliphatic and heteroaryl-aliphatic piperazinyl pyrazines and their use in the treatment of serotonin-related diseases” (Biovitrum AB, priority 1999, dated 2006).

A word on the melting point: it is the temperature, or range, at which the solid turns liquid.

Structures can show the parent of a compound that is named as a salt.

In turn, `Nc1nc2c(OCCOc3nccnc3N3CCNCC3)cccc2o1` (as salt: fumarate) [Example 21, 4-(2-{[3-(1-piperazinyl)-2-pyrazinyl]oxy}ethoxy)-1,3-benzoxazol-2-amine] gave a melting point of 138 to 140 °C.

In turn, `CN(CCOc1ccccc1)c1nccnc1N1CCNCC1` (as salt: fumarate) [Example 47, N-Methyl-N-(2-phenoxyethyl)-3-(1-piperazinyl)-2-pyrazinamine] returned a melting point of 154 °C.

Molecule `COc1ccc(F)cc1OCCOc1nccnc1N1CCNCC1` (as salt: fumarate) [Example 100, 2-[2-(5-Fluoro-2-methoxyphenoxy)ethoxy]-3-(1-piperazinyl)pyrazine] had a melting point of 172 to 176 °C.

Turning to `Fc1cccc(OCCOc2nccnc2N2CCNCC2)c1F` (as salt: fumarate) [Example 105, 2-[2-(2,3-Difluorophenoxy)ethoxy]-3-(1-piperazinyl)pyrazine], the melting point was in the range of 125 to 130 °C.

`Fc1cc(F)c(F)c(OCCOc2nccnc2N2CCNCC2)c1` (as salt: fumarate) [Example 106, 2-[2-(2,3,5-Trifluorophenoxy)ethoxy]-3-(1-piperazinyl)pyrazine]: the melting point lay within 158 to 159 °C.

In turn, `c1ccc(Nc2cccc(OCCOc3nccnc3N3CCNCC3)c2)cc1` (as salt: fumarate) [Example 107, N-Phenyl-3-(2-{[3-(1-piperazinyl)-2-pyrazinyl]oxy}ethoxy)aniline] yielded a melting point of 78 to 81 °C.

In turn, `c1ccc2c(c1)OC(COc1nccnc1N1CCNCC1)CS2` (stereo not shown) (as salt: fumarate) [Example 132, 2-(2,3-Dihydro-1,4-benzoxathiin-2-ylmethoxy)-3-(1-piperazinyl)pyrazine] showed a melting point of 178 to 179 °C.

`Cc1ccc(OCCOc2nccnc2N2CCNC[C@H]2C)cn1` (as salt: fumarate) [Example 176, (2R)-2-Methyl-1-(3-{2-[(6-methyl-3-pyridinyl)oxy]ethoxy}-2-pyrazinyl)piperazine]: the melting point is 115 °C (dec.).

Regarding `CCC1CNCCN1c1nccnc1OCCOc1cccnc1` (stereo not shown) (as salt: fumarate) [Example 178, 2-Ethyl-1-{3-[2-(3-pyridinyloxy)ethoxy]-2-pyrazinyl}piperazine], the melting point fell in the range of 125 to 127 °C.

On to `C[C@@H]1CNC[C@H](C)N1c1nccnc1OCCOc1cccnc1` (as salt: fumarate) [Example 179, cis-2,6-Dimethyl-1-{3-[2-(3-pyridinyloxy)ethoxy]-2-pyrazinyl}piperazine], for which the melting point is 157 °C (dec.).

In turn, `Brc1ncccc1OCCOc1nccnc1N1CCNCC1` (as salt: fumarate) [Example 195, 2-{2-[(2-Bromo-3-pyridinyl)oxy]ethoxy}-3-(1-piperazinyl)pyrazine] showed a melting point of 202 °C.

The molecule `C[C@@H]1CNCCN1c1nccnc1OCCOc1cccnc1Br` (as salt: fumarate) [Example 196, (2R)-1-(3-{2-[(2-Bromo-3-pyridinyl)oxy]ethoxy}-2-pyrazinyl)-2-methylpiperazine] yielded a melting point of 154 °C.

`CSc1ncccc1OCCOc1nccnc1N1CCNCC1` (as salt: fumarate) [Example 197, 2-(2-{[2-(Methylsulfanyl)-3-pyridinyl]oxy}ethoxy)-3-(1-piperazinyl)pyrazine]: the melting point worked out at 201 °C.

On to `CSc1ncccc1OCCOc1nccnc1N1CCNC[C@H]1C` (as salt: fumarate) [Example 198, (2R)-2-Methyl-1-[3-(2-{[2-(methylsulfanyl)-3-pyridinyl]oxy}ethoxy)-2-pyrazinyl]piperazine], for which the melting point was determined as 179 °C.

As for `CCOc1ncccc1OCCOc1nccnc1N1CCNCC1` (as salt: fumarate) [Example 199, 2-{2-[(2-Ethoxy-3-pyridinyl)oxy]ethoxy}-3-(1-piperazinyl)pyrazine], the melting point is 186 °C.

As to `c1ccc2c(c1)CCC(COc1nccnc1N1CCNCC1)C2` (stereo not shown) (as salt: fumarate) [Example 207, 3-(1-piperazinyl)-2-pyrazinyl 1,2,3,4-tetrahydro-2-naphthalenylmethyl ether], the melting point lay in the range of 186 to 188 °C.

With `c1cnc2ccc(COc3nccnc3N3CCNCC3)cc2c1` (as salt: fumarate) [Example 213, 3-(1-Piperazinyl)-2-pyrazinyl 6-quinolinylmethyl ether], the melting point lay in the range of 207 to 209 °C.

On to `c1ccc(OCCOc2nc3ccccc3nc2N2CCNCC2)cc1` (as salt: hydrochloride) [Example 3, 2-(2-Phenoxyethoxy)-3-(1-piperazinyl)quinoxaline], for which the melting point lay in the range of 123 to 126 °C.

With `c1ccc(OCCCOc2nccnc2N2CCNCC2)cc1` (as salt: hydrochloride) [Example 90, 3-(Phenoxy)propyl 3-(1-piperazinyl)-2-pyrazinyl ether], the melting point lay in the range of 146 to 146.5 °C.

`c1ccc(OCCCCOc2nccnc2N2CCNCC2)cc1` (as salt: hydrochloride) [Example 98, 4-(Phenoxy)butyl 3-(1-piperazinyl)-2-pyrazinyl ether] gave a melting point of 129 to 131 °C.

`c1cnc(N2CCNCC2)c(OCC2CCCO2)n1` (stereo not shown) (as salt: hydrochloride) [Example 124, 2-(1-Piperazinyl)-3-(tetrahydro-2-furanylmethoxy)pyrazine] returned a melting point of 130 to 136 °C.

For the molecule `CN1CC(COc2nccnc2N2CCNCC2)Oc2ccccc21` (stereo not shown) (as salt: hydrochloride) [Example 131, 2-(4-Methyl-3,4-dihydro-2H-1,4-benzoxazin-2-ylmethoxy)-3-(1-piperazinyl)-pyrazine], the melting point was 119 °C (dec.).

In the case of `c1ccc2c(c1)CCC(COc1nccnc1N1CCNCC1)O2` (stereo not shown) (as salt: hydrochloride) [Example 133, 2-(3,4-Dihydro-2H-chromen-2-ylmethoxy)-3-(1-piperazinyl)pyrazine], the melting point lay within 170 to 175 °C.

For the molecule `Cc1nc2cc(OCCOc3nccnc3N3CCNCC3)ccc2s1` (as salt: hydrochloride) [Example 143, 2-Methyl-5-(2-{[3-(1-piperazinyl)-2-pyrazinyl]oxy}ethoxy)-1,3-benzothiazole], the melting point lay within 188 to 190 °C.

`c1ccc2c(c1)OC[C@@H](COc1nccnc1N1CCNCC1)O2` (as salt: hydrochloride) [Example 148, 2-[(2S)-2,3-Dihydro-1,4-benzodioxin-2-ylmethoxy]-3-(1-piperazinyl)pyrazine]: the melting point was 160 °C (dec.).

Take `c1cncc(OCCOc2nccnc2N2CCNCC2)c1` (as salt: hydrochloride) [Example 150, 2-(3-Pyridyloxy)ethyl 3-(1-piperazinyl)-2-pyrazinyl ether]: the melting point is 170 to 175 °C.

For `c1cc(OCCOc2nccnc2N2CCNCC2)ccn1` (as salt: hydrochloride) [Example 151, 2-(4-Pyridyloxy)ethyl 3-(1-piperazinyl)-2-pyrazinyl ether], the melting point is 170 °C (dec.).

Take `Cc1ccc(OCCOc2nccnc2N2CCNCC2)cn1` (as salt: hydrochloride) [Example 153, 2-(6-Methyl-3-pyridyloxy)ethyl 3-(1-piperazinyl)-2-pyrazinyl ether]: the melting point was 157 °C (dec.).

As to `Cc1ncccc1OCCOc1nccnc1N1CCNCC1` (as salt: hydrochloride) [Example 154, 2-(2-Methyl-3-pyridyloxy)ethyl 3-(1-piperazinyl)-2-pyrazinyl ether], the melting point is 50 °C (dec.).

Molecule `c1cnc(N2CCNCC2)c(OCCOc2ccsc2)n1` (as salt: hydrochloride) [Example 157, 2-(3-Thienyloxy)ethyl 3-(1-piperazinyl)-2-pyrazinyl ether] displayed a melting point of 75 to 85 °C.

As to `Nc1cc(OCCOc2nccnc2N2CCNCC2)c2ccccc2n1` (as salt: hydrochloride) [Example 160, 4-(2-{[3-(1-piperazinyl)-2-pyrazinyl]oxy}ethoxy)-2-quinolinamine], the melting point is 156 °C (dec.).

Turning to `CN1CCN(c2nccnc2OCC2COc3ccccc3O2)CC1` (stereo not shown) (as salt: hydrochloride) [Example 169, 2,3-Dihydro-1,4-benzodioxin-2-ylmethyl 3-(4-methyl-1-piperazinyl)-2-pyrazinyl ether], the melting point fell in the range of 160 to 167 °C.

As for `C[C@@H]1CNCCN1c1nccnc1OCCOc1cccnc1` (as salt: hydrochloride) [Example 173, (2R)-Methyl-1-{3-[2-(3-pyridinyloxy)ethoxy]-2-pyrazinyl}piperazine], the melting point lay within 180 to 183 °C.

In the case of `CC1CNCCN1c1nc2ccccc2nc1OCCOc1cccc2c1OCO2` (stereo not shown) (as salt: hydrochloride) [Example 182, 2-[2-(1,3-Benzodioxol-4-yloxy)ethoxy]-3-(2-methyl-1-piperazinyl)quinoxaline], the melting point lay in the range of 133 to 138 °C.

Molecule `Cc1nc(OCCOc2ccccc2)c(N2CCNCC2)nc1C` (as salt: hydrochloride) [Example 183, 5,6-Dimethyl-2-(2-phenoxyethoxy)-3-(1-piperazinyl)pyrazine] yielded a melting point of 138 to 140 °C.

As for `c1ccc(OCCOc2cccnc2N2CCNCC2)cc1` (as salt: hydrochloride) [Example 185, 1-[3-(2-Phenoxyethoxy)-2-pyridinyl]piperazine], the melting point lay within 91 to 120 °C.

As to `c1cnc(N2CCNCC2)c(OCCOc2ccc3c(c2)OCCO3)n1` (as salt: hydrochloride) [Example 210, 2-[2-(2,3-Dihydro-1,4-benzodioxin-6-yloxy)ethoxy]-3-(1-piperazinyl)pyrazine], the melting point lay within 158 to 160 °C.

For the molecule `c1coc(COc2nccnc2N2CCNCC2)c1` (as salt: maleate) [Example 2, 2-(2-Furylmethoxy)-3-(1-piperazinyl)pyrazine], the melting point was 118 to 120 °C.

In the case of `Cc1ccccc1OCCOc1nccnc1N1CCNCC1` (as salt: maleate) [Example 93, 2-(2-Methylphenoxy)ethyl 3-(1-piperazinyl)-2-pyrazinyl ether], the melting point lay within 151 to 152 °C.

Molecule `Fc1ccccc1OCCOc1nccnc1N1CCNCC1` (as salt: maleate) [Example 95, 2-(2-Fluorophenoxy)ethyl 3-(1-piperazinyl)-2-pyrazinyl ether] showed a melting point of 171 to 173 °C.
